In US20060084064A1, “Endocan compositions and methods for the treatment of neoplasms” (priority 2003, published 2006):

Columns and labels:
[1] = system: endocan mRNA in HUVECs; test: Endocan mRNA expression in serum-starved HUVECs (Northern blot); type: cell-based, human; settings: for Inhibition of endocan induction by VEGF / Inhibition of endocan induction by tumor cell-conditioned medium: HUVECs preincubated 30 minutes with 5 μM BIM; for Inhibition of endocan induction by VEGF: 20 μM LY294002, 50 μM PD98059 or 20 μM SU1498 before 6 hour treatment with 20 ng/ml VEGF, FIGS. 3G; for Inhibition of endocan induction by VEGF / Effect of growth factor addition on endocan mRNA: 3I; for Inhibition of endocan induction by tumor cell-conditioned medium: 20 μM LY294002 or 50 μM PD98059 before 6 hour treatment, FIG. 3H; for Effect of growth factor addition on endocan mRNA: growth factor added to serum-starved HUVECs, FIGS. 3D-3F
Experimental: Human non-small lung cancer cells (NCI-H1437, ATCC (American Type Culture Collection) CRL-5872) and rat glioma cells (C6, ATCC CCL-107) were grown in DMEM (Life Technologies Inc., Gaithersburg, Md.) containing 10% FBS (Life Technologies Inc.). Human renal cell carcinoma cells (786-0, ATCC CRL-1932) were maintained in RPMI 1640 (Life Technologies Inc.) containing 10% FBS. HUVECs, human epidermal keratinocytes and human renal tubule epithelial cells were obtained from Clonetics (San Diego, Calif.) and grown in EGM-2-MV, KGM and REGM, respectively (Clonetics). All cells were maintained at 37° C. under 5% CO2 in humidified air. Endothelial cells were grown to 90% confluence, serum-starved overnight in EBM-2 medium containing 0.5% FBS and incubated in the absence or presence of tumor cell-conditioned medium or growth factors at the doses and for the times indicated. Unless otherwise stated, endothelial cells were incubated with 20 ng/ml VEGF for 6 hours. In inhibition studies, serum-starved endothelial cells were preincubated with 5 μM BIM, 20 μM LY294002, 50 μM PD98059, or 20 μM SU1498 for 30 minutes before a 6 hour treatment with tumor conditional medium or VEGF. For neutralization studies, tumor conditional medium or growth factors were preincubated with antibodies for 1 hour at 37° C. and the mixture was then added to serum-starved HUVECs.
Cultured cells and tissues were harvested for total RNA extraction, using the Trizol reagent (Life Technologies). Five μg total RNA from cells or 10 μg RNA from tissues were loaded on a 0.7% formaldehyde-containing agarose gel. The RNA was transferred to nylon membrane, covalently cross-linked by UV radiation, prehybridized for 6 hours, and hybridized for 18 hours at 42° C. with 10^6 cpm/ml [^32P] dCTP-labeled human endocan, mouse endocan, mouse vWF, or mouse VEGF cDNA probe.

[2] = system: Flt-1 in HUVECs; settings: VEGF added to HUVECs; Wang et al. 2000; cited from earlier work
[3] = target: Flk-1 kinase; settings: selective inhibitor of Flk-1 kinase, obtained from Calbiochem; cited from earlier work

Row | Molecule | Inhibition of endocan induction by VEGF [1] | Inhibition of endocan induction by tumor cell-conditioned medium [1] | Effect of growth factor addition on endocan mRNA [1] | also measured
1 | CN(C)CCCn1cc(C2=C(c3c[nH]c4ccccc34)C(=O)NC2=O)c2ccccc21 [BIM, Bisindolylmaleimide I] | completely inhibited | completely inhibited | – | –
2 | VEGF | – | – | time and dose dependent increase | Cell surface expression of Flt-1 [2]: reduced; Flt-1 mRNA [2]: increased
3 | COc1cccc(-c2cc(=O)c3ccccc3o2)c1N [PD90985] | – | not | – | –
4 | CC(C)c1cc(/C=C(\C#N)C(=O)NCCCc2ccccc2)cc(C(C)C)c1O [SU1498] | blocked | – | – | IC50 [3]: 700 nM
5 | placenta growth factor (PlGF): Recombinant human placenta growth factor purchased from R&D Systems (protein, UniProt P49763 19-221, looked up) Placenta growth factor: LPAVPPQQWALSAGNGSSEVEVVPFQEVWGRSYCRALERLVDVVSEYPSEVEHMFSPSCVSLLRCTGCCGDENLHCVPVETANVTMQLLKIRSGDRPSYVELTFSQHVRCECRHSPGRQSPDMPGDFRADAPSFLPPRRSLPMLFRMEWGCALTGSQSAVWPSSPVPEEIPRMHPGRNGKKQQRKPLREKMKPERCGDAVPRR | – | – | did not alter | –
